Data: patent publication US11053204B2, “Pyrimidinyloxy benzene derivatives as herbicides” (FMC Corporation, priority 2015, dated 2021)

How the values were obtained:
Format in all cases: in vivo
soybean (Glycine max) = assay: Test C postemergence, plant response rating; conditions: for Soybean plant response rating: scale 0 to 100 (0 no effect, 100 complete control)
Procedure, shortened: (§1)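 After sowing in loam–sand blend or silt loam, pots were sprayed preemergence; separately grown 1- to 4-leaf plants were sprayed postemergence. Following 13 to 15 d under greenhouse conditions, injury was rated visually on a 0 to 100 scale.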

[1] = system: morningglory (Ipomoea coccinea); assay: Test C postemergence, plant response rating; conditions: for Morningglory plant response rating: scale 0 to 100 (0 no effect, 100 complete control)
Procedure, shortened: as §1

kochia (Kochia scoparia) [2] = assay: Test C postemergence, plant response rating; conditions: for Kochia plant response rating: scale 0 to 100 (0 no effect, 100 complete control)
Procedure, shortened: as §1

corn (Zea mays) = assay: Test C postemergence, plant response rating; conditions: for Corn plant response rating: scale 0 to 100 (0 no effect, 100 complete control)
Procedure, shortened: as §1

[3] = system: wheat (winter wheat, Triticum aestivum); assay: Test C postemergence, plant response rating; conditions: for Wheat plant response rating: 125 g ai/ha, scale 0 to 100 (0 no effect, 100 complete control)
Procedure, shortened: as §1

[4] = system: lambsquarters (Chenopodium album); assay: Test C postemergence, plant response rating; conditions: for Lambsquarters plant response rating: scale 0 to 100 (0 no effect, 100 complete control)
Procedure, shortened: as §1

[5] = system: oilseed rape (Brassica napus); assay: Test C postemergence, plant response rating; conditions: for Oilseed Rape plant response rating: scale 0 to 100 (0 no effect, 100 complete control)
Procedure, shortened: as §1

[6] = system: nutsedge, yellow (yellow nutsedge, Cyperus esculentus); assay: Test C postemergence, plant response rating; conditions: for Nutsedge, Yellow plant response rating: scale 0 to 100 (0 no effect, 100 complete control)
Procedure, shortened: as §1

[7] = system: crabgrass, large (large crabgrass, Digitaria sanguinalis); assay: Test C postemergence, plant response rating; conditions: for Crabgrass, Large plant response rating: scale 0 to 100 (0 no effect, 100 complete control)
Procedure, shortened: as §1

[8] = system: blackgrass (Alopecurus myosuroides); assay: Test C postemergence, plant response rating; conditions: for Plant response rating, Blackgrass: scale 0 to 100; for Blackgrass plant response rating: scale 0 to 100 (0 no effect, 100 complete control)
Procedure, shortened: as §1

[9] = system: barnyardgrass (Echinochloa crus-galli); assay: Test C postemergence, plant response rating; conditions: for Plant response rating, Barnyardgrass: scale 0 to 100; for Barnyardgrass plant response rating: scale 0 to 100 (0 no effect, 100 complete control)
Procedure, shortened: as §1

[10] = system: foxtail, giant (giant foxtail, Setaria faberii); assay: Test C postemergence, plant response rating; conditions: for Foxtail, Giant plant response rating: scale 0 to 100 (0 no effect, 100 complete control)
Procedure, shortened: as §1

[11] = system: ryegrass, Italian (Italian ryegrass, Lolium multiflorum); assay: Test C postemergence, plant response rating; conditions: for Ryegrass, Italian plant response rating: scale 0 to 100 (0 no effect, 100 complete control)
Procedure, shortened: as §1

[12] = system: chickweed (common chickweed, Stellaria media); assay: Test C postemergence, plant response rating; conditions: for Chickweed plant response rating: scale 0 to 100 (0 no effect, 100 complete control)
Procedure, shortened: as §1

[13] = system: oat, wild (wild oat Avena fatua); assay: Test C postemergence, plant response rating; conditions: for Oat, Wild plant response rating: scale 0 to 100 (0 no effect, 100 complete control)
Procedure, shortened: as §1

kochia (Kochia scoparia) [14] = assay: Test A preemergence, visual injury rating
Procedure, shortened: (§2)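 Compounds in non-phytotoxic solvent with surfactant applied as soil spray preemergence, or postemergence to plants 2-10 cm at one- to two-leaf stage, in loam/sand. After approximately 10 days in greenhouse, injury rated visually versus untreated controls, 0 (no effect) to 100 (complete control).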

[15] = system: barnyardgrass (Echinochloa crus-galli); assay: Test A preemergence, visual injury rating; conditions: for Plant response rating, Barnyardgrass: 31 g ai/ha, 0 to 100 scale, 0 no effect, 100 complete control; for Barnyardgrass plant response rating: 125 g ai/ha, 0 to 100 scale (0 no effect, 100 complete control)
Procedure, shortened: as §2

[16] = 31 g ai/ha, 0 to 100 scale, 0 no effect, 100 complete control
[17] = 125 g ai/ha, 0 to 100 scale (0 no effect, 100 complete control)

O=C(CCC(F)(F)F)c1c(Br)cccc1Oc1ncc(Cl)cn1 [Compound 92]
65: Morningglory plant response rating ([1]; 62 g ai/ha)
40: Plant response rating, Soybean (soybean (Glycine max); 31 g ai/ha, scale 0 to 100) | Plant response rating, Lambsquarters ([4]; 16 g ai/ha, scale of 0 to 100)
100: Plant response rating, Kochia (kochia (Kochia scoparia) [2]; 16 g ai/ha, scale of 0 to 100) | Plant response rating, Kochia (kochia (Kochia scoparia) [2]; 31 g ai/ha, scale 0 to 100) | Kochia plant response rating (kochia (Kochia scoparia) [2]; 62 g ai/ha) | Kochia plant response rating (kochia (Kochia scoparia) [2]; 125 g ai/ha) | Plant response rating, Chickweed ([12]; 16 g ai/ha, scale of 0 to 100) | Plant response rating, Chickweed ([12]; 31 g ai/ha, scale 0 to 100) | Chickweed plant response rating ([12]; 62 g ai/ha) | Chickweed plant response rating ([12]; 125 g ai/ha) | Barnyardgrass plant response rating [15]
50: Lambsquarters plant response rating ([4]; 62 g ai/ha) | Plant response rating, Oilseed Rape ([5]; 31 g ai/ha, scale 0 to 100) | Oilseed Rape plant response rating ([5]; 62 g ai/ha) | Foxtail, Giant plant response rating ([10]; 125 g ai/ha)
20: Plant response rating, Morningglory ([1]; 16 g ai/ha, scale of 0 to 100) | Plant response rating, Corn (corn (Zea mays); 31 g ai/ha, scale 0 to 100) | Corn plant response rating (corn (Zea mays); 125 g ai/ha) | Nutsedge, Yellow plant response rating ([6]; 125 g ai/ha) | Plant response rating, Crabgrass, Large ([7]; 16 g ai/ha, scale of 0 to 100) | Blackgrass plant response rating ([8]; 125 g ai/ha) | Barnyardgrass plant response rating ([9]; 125 g ai/ha) | Plant response rating, Foxtail, Giant ([10]; 31 g ai/ha, scale 0 to 100)
90: Plant response rating, Kochia (kochia (Kochia scoparia) [14]; [16]) | Kochia plant response rating (kochia (Kochia scoparia) [14]; [17])
60: Plant response rating, Lambsquarters ([4]; 31 g ai/ha, scale 0 to 100)
30: Plant response rating, Soybean (soybean (Glycine max); 16 g ai/ha, scale of 0 to 100) | Ryegrass, Italian plant response rating ([11]; 125 g ai/ha)
75: Soybean plant response rating (soybean (Glycine max); 125 g ai/ha)
35: Crabgrass, Large plant response rating ([7]; 125 g ai/ha)
15: Corn plant response rating (corn (Zea mays); 62 g ai/ha) | Barnyardgrass plant response rating ([9]; 62 g ai/ha) | Plant response rating, Ryegrass, Italian ([11]; 31 g ai/ha, scale 0 to 100)
85: Plant response rating, Morningglory ([1]; 31 g ai/ha, scale 0 to 100) | Morningglory plant response rating ([1]; 125 g ai/ha) | Lambsquarters plant response rating ([4]; 125 g ai/ha)
25: Crabgrass, Large plant response rating ([7]; 62 g ai/ha) | Foxtail, Giant plant response rating ([10]; 62 g ai/ha)
70: Soybean plant response rating (soybean (Glycine max); 62 g ai/ha) | Oilseed Rape plant response rating ([5]; 125 g ai/ha) | Plant response rating, Barnyardgrass [15]
5: Plant response rating, Oilseed Rape ([5]; 16 g ai/ha, scale of 0 to 100) | Plant response rating, Blackgrass ([8]; 16 g ai/ha) | Blackgrass plant response rating ([8]; 62 g ai/ha) | Plant response rating, Oat, Wild ([13]; 16 g ai/ha, scale of 0 to 100) | Plant response rating, Oat, Wild ([13]; 31 g ai/ha, scale 0 to 100) | Oat, Wild plant response rating ([13]; 62 g ai/ha) | Oat, Wild plant response rating ([13]; 125 g ai/ha)
10: Plant response rating, Corn (corn (Zea mays); 16 g ai/ha, scale of 0 to 100) | Wheat plant response rating [3] | Plant response rating, Nutsedge, Yellow ([6]; 31 g ai/ha, scale 0 to 100) | Nutsedge, Yellow plant response rating ([6]; 62 g ai/ha) | Plant response rating, Crabgrass, Large ([7]; 31 g ai/ha, scale 0 to 100) | Plant response rating, Blackgrass ([8]; 31 g ai/ha) | Plant response rating, Barnyardgrass ([9]; 16 g ai/ha) | Plant response rating, Barnyardgrass ([9]; 31 g ai/ha) | Plant response rating, Foxtail, Giant ([10]; 16 g ai/ha, scale of 0 to 100) | Plant response rating, Ryegrass, Italian ([11]; 16 g ai/ha, scale of 0 to 100) | Ryegrass, Italian plant response rating ([11]; 62 g ai/ha)
0: Plant response rating, Wheat ([3]; 16 g ai/ha, scale of 0 to 100) | Plant response rating, Wheat ([3]; 31 g ai/ha, scale 0 to 100) | Plant response rating, Nutsedge, Yellow ([6]; 16 g ai/ha, scale of 0 to 100)

O=C(CCC(F)(F)C(F)(F)F)c1c(Br)cccc1Oc1ncc(Cl)cn1 [Compound 110]
60: Morningglory plant response rating ([1]; 62 g ai/ha) | Plant response rating, Oilseed Rape ([5]; 16 g ai/ha, scale of 0 to 100) | Plant response rating, Oilseed Rape ([5]; 31 g ai/ha, scale 0 to 100) | Crabgrass, Large plant response rating ([7]; 125 g ai/ha) | Plant response rating, Chickweed ([12]; 16 g ai/ha, scale of 0 to 100)
0: Plant response rating, Nutsedge, Yellow ([6]; 16 g ai/ha, scale of 0 to 100)
20: Plant response rating, Corn (corn (Zea mays); 31 g ai/ha, scale 0 to 100) | Corn plant response rating (corn (Zea mays); 62 g ai/ha) | Plant response rating, Crabgrass, Large ([7]; 31 g ai/ha, scale 0 to 100) | Blackgrass plant response rating ([8]; 62 g ai/ha) | Barnyardgrass plant response rating ([9]; 62 g ai/ha) | Ryegrass, Italian plant response rating ([11]; 125 g ai/ha) | Plant response rating, Oat, Wild ([13]; 16 g ai/ha, scale of 0 to 100)
55: Oat, Wild plant response rating ([13]; 125 g ai/ha)
15: Corn plant response rating (corn (Zea mays); 125 g ai/ha) | Wheat plant response rating [3] | Plant response rating, Blackgrass ([8]; 31 g ai/ha) | Ryegrass, Italian plant response rating ([11]; 62 g ai/ha)
35: Soybean plant response rating (soybean (Glycine max); 125 g ai/ha)
40: Plant response rating, Soybean (soybean (Glycine max); 16 g ai/ha, scale of 0 to 100) | Plant response rating, Soybean (soybean (Glycine max); 31 g ai/ha, scale 0 to 100) | Plant response rating, Barnyardgrass [15]
45: Oat, Wild plant response rating ([13]; 62 g ai/ha)
100: Plant response rating, Kochia (kochia (Kochia scoparia) [2]; 31 g ai/ha, scale 0 to 100) | Kochia plant response rating (kochia (Kochia scoparia) [2]; 62 g ai/ha) | Kochia plant response rating (kochia (Kochia scoparia) [2]; 125 g ai/ha) | Plant response rating, Kochia (kochia (Kochia scoparia) [14]; [17]) | Barnyardgrass plant response rating [15]
75: Plant response rating, Lambsquarters ([4]; 16 g ai/ha, scale of 0 to 100)
10: Plant response rating, Corn (corn (Zea mays); 16 g ai/ha, scale of 0 to 100) | Plant response rating, Crabgrass, Large ([7]; 16 g ai/ha, scale of 0 to 100) | Plant response rating, Blackgrass ([8]; 16 g ai/ha) | Plant response rating, Barnyardgrass ([9]; 16 g ai/ha) | Plant response rating, Barnyardgrass ([9]; 31 g ai/ha) | Plant response rating, Foxtail, Giant ([10]; 16 g ai/ha, scale of 0 to 100) | Plant response rating, Foxtail, Giant ([10]; 31 g ai/ha, scale 0 to 100) | Plant response rating, Ryegrass, Italian ([11]; 31 g ai/ha, scale 0 to 100) | Plant response rating, Kochia (kochia (Kochia scoparia) [14]; [16])
85: Oilseed Rape plant response rating ([5]; 62 g ai/ha)
90: Plant response rating, Lambsquarters ([4]; 31 g ai/ha, scale 0 to 100) | Chickweed plant response rating ([12]; 125 g ai/ha)
98: Lambsquarters plant response rating ([4]; 125 g ai/ha)
25: Crabgrass, Large plant response rating ([7]; 62 g ai/ha) | Blackgrass plant response rating ([8]; 125 g ai/ha) | Foxtail, Giant plant response rating ([10]; 62 g ai/ha) | Foxtail, Giant plant response rating ([10]; 125 g ai/ha)
5: Plant response rating, Wheat ([3]; 16 g ai/ha, scale of 0 to 100) | Plant response rating, Wheat ([3]; 31 g ai/ha, scale 0 to 100) | Plant response rating, Nutsedge, Yellow ([6]; 31 g ai/ha, scale 0 to 100) | Nutsedge, Yellow plant response rating ([6]; 62 g ai/ha) | Nutsedge, Yellow plant response rating ([6]; 125 g ai/ha) | Plant response rating, Ryegrass, Italian ([11]; 16 g ai/ha, scale of 0 to 100)
50: Soybean plant response rating (soybean (Glycine max); 62 g ai/ha) | Plant response rating, Morningglory ([1]; 31 g ai/ha, scale 0 to 100) | Morningglory plant response rating ([1]; 125 g ai/ha)
95: Plant response rating, Kochia (kochia (Kochia scoparia) [2]; 16 g ai/ha, scale of 0 to 100) | Lambsquarters plant response rating ([4]; 62 g ai/ha) | Oilseed Rape plant response rating ([5]; 125 g ai/ha) | Plant response rating, Chickweed ([12]; 31 g ai/ha, scale 0 to 100) | Chickweed plant response rating ([12]; 62 g ai/ha)
30: Plant response rating, Morningglory ([1]; 16 g ai/ha, scale of 0 to 100) | Barnyardgrass plant response rating ([9]; 125 g ai/ha) | Plant response rating, Oat, Wild ([13]; 31 g ai/ha, scale 0 to 100)
